Source: patent US12600698B2, “Kinase inhibitors” (Vidya Therapeutics, Inc., priority 2021, dated 2026)

The compounds below were run against T1, BTK (Homo sapiens, UniProt Q06187) (assay: BTK IC50 (EZ reader kinase assay)). Conditions: ATP 1 mM, BTK 2 nM, 90 minutes at room temperature.
Assay type: biochemical
Set-up: purchased Carna
Protocol: Solutions of compounds (test or control) in DMSO were prepared at the desired concentrations, and serially diluted to 11 concentrations by 3-fold dilution in 384pp-plate using TECAN EVO200. 20 nL of stock were transferred to 384 plate using Echo550. DMSO was used as vehicle control.
Two separate solutions were prepared—an ATP solution containing MgCl2 (10 mM), Brij-35 (0.01%), DTT (2 mM), BSA (0.05%), EGTA (1 mM), HEPE (pH7.5) (50 mM), FLPeptide (6 uM) and ATP (4 mM); and a BTK solution containing MgCl2 (10 mM), Brij-35 (0.01%), DTT (2 mM), BSA (0.05%), EGTA (1 mM), HEPE (pH7.5) (50 mM) and BTK (2.67 nM). (BTK was obtained from Carna; FLPeptide2 was obtained from PerkinElmer and Ibrutinib was obtained from Selleck.) 5 uL of ATP solution were added to each well, followed by addition of 15 uL of BTK solution to initiate the reaction. (Note the final volume of each well was 20 uL containing MgCl2 (10 mM), Brij-35 (0.01%), DTT (2 mM), BSA (0.05%), EGTA (1 mM), HEPE (pH7.5) (50 mM), FLPeptide (1.5 uM), ATP (1 mM) and BTK (2 nM). The plates were incubated at room temperature for 90 minutes and then stopping buffer added (75 uL, containing 0.5 M EDTA) to terminate the reaction. Samples from each well were analyzed using EZ reader.
The % remaining activity was calculated using read conversion ratio (CR) according to the equation: […]
XLFit (equation 201) was used to calculate IC50's by floating both bottom and top.
BTK IC50 values are provided in Table 5, for the compounds described in Examples 1-13, wherein: • “A” denotes an IC50<1 nM; • “B” denotes an IC50 1-10 nM; and • “C” denotes an IC50>10 nM.

T1 sequence (Q06187 whole entry): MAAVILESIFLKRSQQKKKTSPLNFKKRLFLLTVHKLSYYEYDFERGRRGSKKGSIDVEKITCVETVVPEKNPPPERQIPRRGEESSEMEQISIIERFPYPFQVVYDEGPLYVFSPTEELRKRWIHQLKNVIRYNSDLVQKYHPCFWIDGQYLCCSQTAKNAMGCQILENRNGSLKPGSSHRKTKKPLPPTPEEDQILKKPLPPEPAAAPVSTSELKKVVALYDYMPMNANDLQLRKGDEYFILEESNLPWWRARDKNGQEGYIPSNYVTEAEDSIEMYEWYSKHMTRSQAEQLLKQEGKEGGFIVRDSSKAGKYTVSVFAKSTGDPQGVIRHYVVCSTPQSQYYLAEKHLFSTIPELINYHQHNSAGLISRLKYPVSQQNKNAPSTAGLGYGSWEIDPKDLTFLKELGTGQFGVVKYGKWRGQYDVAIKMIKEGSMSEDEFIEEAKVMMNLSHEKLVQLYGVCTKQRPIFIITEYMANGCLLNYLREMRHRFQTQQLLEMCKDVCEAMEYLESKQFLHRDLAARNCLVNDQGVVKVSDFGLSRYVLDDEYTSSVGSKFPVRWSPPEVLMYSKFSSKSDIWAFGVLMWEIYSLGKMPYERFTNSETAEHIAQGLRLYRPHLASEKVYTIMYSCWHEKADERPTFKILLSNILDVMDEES

`CC#CC(=O)NC1CCC=C(c2c(F)cc(C(N)=O)c3[nH]c(C)c(Cl)c23)C1` (racemic) [1A(rac), 4-(5-(but-2-ynamido)cyclohex-1-en-1-yl)-3-chloro-5-fluoro-2-methyl-1H-indole-7-carboxamide] and `CC#CC(=O)NC1C=C(c2c(F)cc(C(N)=O)c3[nH]c(C)c(Cl)c23)CCC1` (racemic) [5B(rac), 4-(3-(but-2-ynamido)cyclohex-1-en-1-yl)-3-chloro-5-fluoro-2-methyl-1H-indole-7-carboxamide] fall in the same range of IC50: 0.001 to 0.01 µM for the first, 0.001 to 0.01 µM for the second.

`CC#CC(=O)N[C@@H]1CCC[C@H](c2c(F)cc(C(N)=O)c3[nH]c(C)c(Cl)c23)C1` (relative stereo) [Compound 6-(cis), 4-((cis)-3-(but-2-ynamido)cyclohexyl)-3-chloro-5-fluoro-2-methyl-1H-indole-7-carboxamide] and `CC#CC(=O)N[C@H]1CCC[C@H](c2c(F)cc(C(N)=O)c3[nH]c(C)c(Cl)c23)C1` (relative stereo) [Compound 6-(trans), 4-((trans)-3-(but-2-ynamido)cyclohexyl)-3-chloro-5-fluoro-2-methyl-1H-indole-7-carboxamide] fall in the same range of IC50: 0.001 to 0.01 µM for the first, 0.001 to 0.01 µM for the second.

`CC#CC(=O)N(C)[C@H]1CCC=C(c2c(F)cc(C(N)=O)c3[nH]c(C)c(C)c23)C1` [4A(S), (S)-5-fluoro-2,3-dimethyl-4-(5-(N-methylbut-2-ynamido)cyclohex-1-en-1-yl)-1H-indole-7-carboxamide] and `CC#CC(=O)N(C)[C@@H]1C=C(c2c(F)cc(C(N)=O)c3[nH]c(C)c(C)c23)CCC1` [4B(S), (S)-5-fluoro-2,3-dimethyl-4-(3-(N-methylbut-2-ynamido)cyclohex-1-en-1-yl)-1H-indole-7-carboxamide] fall in the same range of IC50: 0.001 to 0.01 µM for the first, 0.001 to 0.01 µM for the second.

First: CC#CC(=O)N[C@H]1C=C(c2c(F)cc(C(N)=O)c3[nH]c(C)c(Cl)c23)CCC1 [5B(R), (R)-4-(3-(but-2-ynamido)cyclohex-1-en-1-yl)-3-chloro-5-fluoro-2-methyl-1H-indole-7-carboxamide]
Second: CC#CC(=O)N[C@@H]1CCC[C@@H](c2c(F)cc(C(N)=O)c3[nH]c(C)c(Cl)c23)C1 [6-(1R,3R), 4-((1R,3R)-3-(but-2-ynamido)cyclohexyl)-3-chloro-5-fluoro-2-methyl-1H-indole-7-carboxamide]
The IC50 of the first is lower: 0.001 to 0.01 µM for the first, over 0.01 µM for the second.

First: CC#CC(=O)N[C@H]1CCC[C@H](c2c(F)c(F)c(C(N)=O)c3[nH]c(C)c(Cl)c23)C1 [11-(1S,3S), 4-[(1S,3S)-3-(but-2-ynoylamino)cyclohexyl]-3-chloro-5,6-difluoro-2-methyl-1H-indole-7-carboxamide]
Second: CC#CC(=O)N[C@@H]1CCC[C@@H](c2c(F)c(F)c(C(N)=O)c3[nH]c(C)c(F)c23)C1 [Compound 8-(1R,3R), 4-((1R,3R)-3-(but-2-ynamido)cyclohexyl)-3,5,6-trifluoro-2-methyl-1H-indole-7-carboxamide]
The IC50 of the first is higher: over 0.01 µM for the first, 0.001 to 0.01 µM for the second.

`CC#CC(=O)N[C@H]1CC[C@H](c2c(F)cc(C(N)=O)c3[nH]c(C)c(C)c23)C1` [12-(1S,3S), 4-((1S,3S)-3-(but-2-ynamido)cyclopentyl)-5-fluoro-2,3-dimethyl-1H-indole-7-carboxamide] and `CC#CC(=O)N[C@@H]1CC[C@H](c2c(F)cc(C(N)=O)c3[nH]c(C)c(C)c23)C1` [13-(1S,3R), 4-((1S,3R)-3-(but-2-ynamido)cyclopentyl)-5-fluoro-2,3-dimethyl-1H-indole-7-carboxamide] cannot be ordered by IC50: over 0.01 µM for the first, over 0.01 µM for the second.

Compared with `CC#CC(=O)N[C@H]1CCC[C@H](c2c(F)c(F)c(C(N)=O)c3[nH]c(C)c(C#N)c23)C1` [Compound 7-(1S,3S), 4-((1S,3S)-3-(but-2-ynamido)cyclohexyl)-3-cyano-5,6-difluoro-2-methyl-1H-indole-7-carboxamide], `CC#CC(=O)N[C@H]1CCC[C@@H](c2c(F)c(F)c(C(N)=O)c3[nH]c(C)c(F)c23)C1` [Compound 8-(1R,3S), 4-((1R,3S)-3-(but-2-ynamido)cyclohexyl)-3,5,6-trifluoro-2-methyl-1H-indole-7-carboxamide] is lower in IC50: over 0.01 µM for the first, 0.001 to 0.01 µM for the second.

`CC#CC(=O)N[C@@H]1CCC[C@H](c2c(F)c(F)c(C(N)=O)c3[nH]c(C)c(F)c23)C1` [Compound 8-(1S,3R), 4-((1S,3R)-3-(but-2-ynamido)cyclohexyl)-3,5,6-trifluoro-2-methyl-1H-indole-7-carboxamide] and `CC#CC(=O)N[C@H]1CCC[C@H](c2c(F)c(F)c(C(N)=O)c3[nH]c(C)c(F)c23)C1` [Compound 8-(1S,3S), 4-((1S,3S)-3-(but-2-ynamido)cyclohexyl)-3,5,6-trifluoro-2-methyl-1H-indole-7-carboxamide] cannot be ordered by IC50: over 0.01 µM for the first, over 0.01 µM for the second.

`CC#CC(=O)N[C@@H]1CCC[C@@H](c2c(F)c(F)c(C(N)=O)c3[nH]c(C)c(C)c23)C1` [Compound 9-(1R,3R), 4-((1R,3R)-3-(but-2-ynamido)cyclohexyl)-5,6-difluoro-2,3-dimethyl-1H-indole-7-carboxamide] and `CC#CC(=O)N[C@H]1CCC[C@@H](c2c(F)c(F)c(C(N)=O)c3[nH]c(C)c(C)c23)C1` [Compound 9-(1R,3S), 4-((1R,3S)-3-(but-2-ynamido)cyclohexyl)-5,6-difluoro-2,3-dimethyl-1H-indole-7-carboxamide] cannot be ordered by IC50: over 0.01 µM for the first, over 0.01 µM for the second.

`CC#CC(=O)N[C@@H]1CCC[C@H](c2c(F)c(F)c(C(N)=O)c3[nH]c(C)c(C)c23)C1` [Compound 9-(1S,3R), 4-((1S,3R)-3-(but-2-ynamido)cyclohexyl)-5,6-difluoro-2,3-dimethyl-1H-indole-7-carboxamide] and `CC#CC(=O)N[C@H]1CCC[C@H](c2c(F)c(F)c(C(N)=O)c3[nH]c(C)c(C)c23)C1` [Compound 9-(1S,3S), 4-((1S,3S)-3-(but-2-ynamido)cyclohexyl)-5,6-difluoro-2,3-dimethyl-1H-indole-7-carboxamide] fall in the same range of IC50: 0.001 to 0.01 µM for the first, 0.001 to 0.01 µM for the second.

These compounds were tested against T1, BTK (assay: Assay to determine BTK inactivation rate (active site probe ELISA, human whole blood)). Conditions: 37° C., 5-60 minutes, read-out: BTK hWB (Kinact/Ki).
Assay type: cell-based
Set-up: tissue StemExpress; host or cells: human whole blood
Protocol: This example employed a BTK active site probe-based assay using a biotinylated covalent inhibitor in human and mouse blood or mouse brain lysate.
Human whole blood was obtained from StemExpress (Stockton, CA) and kept at ambient temperature until the time of the experiment, which was approximately 24 hours after it had been collected. • 1. A 1× lysis buffer was prepared by using 10× lysis buffer (Cell Signaling Technology, #9083S, Danvers, MA), molecular biology grade water, 100× Halt Protease and Phosphatase Inhibitor Cocktail, (ThermoFisher, #78440, Waltham, MA), and BTK active site probe (final: 0.4 μM). This was prepared fresh each experimental day. • 2. Lysis buffer was added in the volume of 30 μL to all wells in a V-bottom plate (Greiner Bio-One, #651261, Monroe, NC) in preparation for timepoint collections. • 3. Compounds were reconstituted to stocks of 10 mM in 100% DMSO and were diluted in 2-fold serial dilutions to generate an 8-point curve in DMSO, with the last point being DMSO only. • 4. A working 10× dilution series was created using 1 μL of the prepared DMSO titration into […] 1×PBS in order to keep the DMSO constant (0.03% DMSO final). • 5. The whole blood was added in the volume of 225 μL per well in a new 96 w v-bottom plate. • 6. For compound treatment, 25 μL of the 10× dilution series in PBS was added to the 225 μL whole blood, followed by briefly pipetting up and down, twice. • 7. The plates were then covered with plastic lids and incubated at 37° C. for 5, 10, 15, 30, 60 minutes. • 8. At each timepoint, 30 μL of compound- or DMSO (vehicle)-treated blood is pulled from each column and added to preloaded collection plates that contained 30 μL of lysis buffer supplemented with BTK active site probe. Samples were then mixed briefly by pipetting up and down, twice. • 9. The plates with collected and lysed samples were shaken and covered with sealing film on a rotator for 60 minutes at room temperature. These samples were used fresh for detection via ELISA, and remaining sample was frozen at −80° C. if a repeat was necessary. Determining Amount of Unoccupied BTK Using ELISA • 1. All streptavidin pre-coated plates (R&D Systems, #CP004, Minneapolis, MN) were brought to room temperature while samples are lysing. • 2. Assay Buffer 1, 1×PBS+0.05% Tween 20+1% BSA was prepared, filtered, and stored at 4° C. when not in use. • 3. Using this Assay Buffer 1, assay buffer+1× protease/phosphatase inhibitor cocktail (PICS) was prepared in the amount needed for all samples. • 4. Assay Buffer+PICS in the volume of 90 μL/well was added to the ELISA plate for blood samples. • 5. Assay Buffer+PICs in the volume of 50 μL/well was added to the ELISA plate for brain samples. • 6. Lysed blood sample (10 μL) was added to the ELISA plate. • 7. Lysed brain sample (50 μL) was added to the ELISA plate. • 8. Samples were loaded into the ELISA plate for a total of 100 μL/well, in duplicate, and remained in the plate, sealed, overnight at 4° C. • 9. The following day, the plate was washed three times with 1× Wash Buffer (1×PBS+0.05% Tween 20) at 250 μL/well using a plate washer. • 10. The plate was inverted to expel all fluid each time and blotted on clean paper towels to remove remaining liquid. • 11. Assay Buffer 2 was prepared (1×PBS+0.05% Tween 20+0.5% BSA) and kept at 4° C. when not in use. • 12. The primary antibody α-BTK (clone D3H5, Cell Signaling Technology #8547S Danvers, MA) was diluted 1:500 in Assay Buffer 2. • 13. Diluted a-BTK antibody was added at 100 μL/well. • 14. The plate was covered with adhesive film and incubated for 90 minutes at room temperature. • 15. The plate was washed three times with 1× Wash Buffer at 250 μL/well using a plate washer. • 16. The plate was inverted to expel all fluid each time and blotted on clean paper towels to remove remaining liquid. • 17. The detection antibody (Jackson Immuno Research, #711-005-152) was diluted 1:2,500 with Assay Buffer 2. • 18. The diluted antibody was added at 100 μL/well. • 19. […]

Compound `CC#CC(=O)N[C@@H]1CCC[C@H](c2c(F)cc(C(N)=O)c3[nH]c(C)c(Cl)c23)C1` (relative stereo) [Compound 6-(cis), 4-((cis)-3-(but-2-ynamido)cyclohexyl)-3-chloro-5-fluoro-2-methyl-1H-indole-7-carboxamide] has a kinact/KI of under 8330 M⁻¹ s⁻¹.
